The target of one experiment is CDK1/Cyclin B1 (Homo sapiens, UniProt P06493). Put plainly: CDK1/Cyclin B1 Biochemical Assay (TR-FRET), 0.015 mM ATP. Particulars: 0.15 μM Rb (Ser780)-biotin substrate, pH7.0, 60 min preincubation, 120 min reaction, room temperature. The procedure, abridged:
(§1)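 TR-FRET assay with 0.15 μM Rb (Ser780)-biotin substrate and 0-10 μM compound in 50 mM HEPES pH7.0, 50 mM MgCl2, 1 mM DTT. ATP was 0.060 mM for CDK2/Cyclin E1 and 0.015 mM for CDK1/Cyclin B1. Kinase was preincubated with compound 60 min, reacted 120 min at room temperature, and IC50 was fitted (four-parameter) from the 665/620 nm ratio.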
For orientation: In TR-FRET formats the signal depends on donor and acceptor labels being close together.

The next experiment has as its target CDK2/Cyclin E1 (Homo sapiens, UniProt P24941). The experiment can be described thus: CDK2/Cyclin E1 Biochemical Assay (TR-FRET), 0.060 mM ATP. Conditions: 0.15 μM Rb (Ser780)-biotin substrate, pH7.0, 60 min preincubation, 120 min reaction, room temperature. The procedure, abridged: as §1

CDK1/Cyclin B1, sequence (P06493 whole entry): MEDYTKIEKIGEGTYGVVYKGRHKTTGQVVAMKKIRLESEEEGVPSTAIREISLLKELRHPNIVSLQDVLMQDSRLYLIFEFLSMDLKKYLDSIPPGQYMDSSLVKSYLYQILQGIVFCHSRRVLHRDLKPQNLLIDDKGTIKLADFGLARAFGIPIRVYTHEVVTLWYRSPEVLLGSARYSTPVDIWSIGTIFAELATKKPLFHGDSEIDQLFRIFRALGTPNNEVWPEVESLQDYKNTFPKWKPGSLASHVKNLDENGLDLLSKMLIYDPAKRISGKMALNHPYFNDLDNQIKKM
CDK1/Cyclin B1, sequence (P14635 whole entry partner): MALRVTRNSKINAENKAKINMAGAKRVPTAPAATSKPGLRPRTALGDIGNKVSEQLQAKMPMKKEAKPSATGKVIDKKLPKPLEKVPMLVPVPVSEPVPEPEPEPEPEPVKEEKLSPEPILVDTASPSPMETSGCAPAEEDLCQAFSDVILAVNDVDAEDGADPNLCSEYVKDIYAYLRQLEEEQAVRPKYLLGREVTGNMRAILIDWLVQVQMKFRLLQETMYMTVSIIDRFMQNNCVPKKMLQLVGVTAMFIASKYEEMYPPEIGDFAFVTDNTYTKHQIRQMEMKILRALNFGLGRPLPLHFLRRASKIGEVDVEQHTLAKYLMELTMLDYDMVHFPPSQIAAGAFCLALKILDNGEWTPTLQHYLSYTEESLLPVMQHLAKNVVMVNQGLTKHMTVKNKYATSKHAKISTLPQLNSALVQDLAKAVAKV

Usually IC50 stands for the point on the concentration scale where inhibition reaches its midpoint. A lower IC50 goes with inhibition by little substance. Consider `CN1c2ccc(Nc3cc([C@@H]4CC[C@H](OC(=O)NC5CCC5)C4)[nH]n3)cc2CS1(=O)=O` (single isomer, unassigned) [Example 227b, cis-3-(3-((1-methyl-2,2-dioxido-1,3-dihydrobenzo[c]isothiazol-5-yl)amino)-1H-pyrazol-5-yl)cyclopentyl cyclobutylcarbamate], for which the IC50 on CDK1/Cyclin B1 came to 45 nM; on CDK2/Cyclin E1, 1.3 nM.
Consider `CC(C)NC(=O)O[C@H]1CC[C@@H](c2cc(Nc3ccc4c(c3)CCS(=O)(=O)N4)n[nH]2)C1` (single isomer, unassigned) [Example 246a, cis-3-(3-((2,2-dioxido-3,4-dihydro-1H-benzo[c][1,2]thiazin-6-yl)amino)-1H-pyrazol-5-yl)cyclopentyl isopropylcarbamate], for which the values for the IC50 against CDK1/Cyclin B1 and on CDK2/Cyclin E1 were 201 nM and 3.4 nM, respectively.
The corresponding values for `CC(C)NC(=O)O[C@H]1CC[C@@H](c2cc(Nc3ccc4c(c3)CCS(=O)(=O)N4)n[nH]2)C1` (single isomer, unassigned) [Example 246b, cis-3-(3-((2,2-dioxido-3,4-dihydro-1H-benzo[c][1,2]thiazin-6-yl)amino)-1H-pyrazol-5-yl)cyclopentyl isopropylcarbamate] are 68 nM and 2.3 nM.
The corresponding values for `CC1(NC(=O)O[C@H]2CC[C@@H](c3cc(Nc4ccc5c(c4)CCS(=O)(=O)N5)n[nH]3)C2)CC1` (single isomer, unassigned) [Example 249a, cis-3-(3-((2,2-dioxido-3,4-dihydro-1H-benzo[c][1,2]thiazin-6-yl)amino)-1H-pyrazol-5-yl)cyclopentyl(1-methylcyclopropyl)carbamate] are 31 nM and 1.1 nM.
The corresponding values for `CC1(NC(=O)O[C@H]2CC[C@@H](c3cc(Nc4ccc5c(c4)CCS(=O)(=O)N5)n[nH]3)C2)CC1` (single isomer, unassigned) [Example 249b, cis-3-(3-((2,2-dioxido-3,4-dihydro-1H-benzo[c][1,2]thiazin-6-yl)amino)-1H-pyrazol-5-yl)cyclopentyl(1-methylcyclopropyl)carbamate] are 12 nM and 0.6 nM.
As for `CC(C)NC(=O)O[C@@H]1CC[C@H](c2cc(Nc3ccc4c(c3F)CS(=O)(=O)N4)n[nH]2)C1` (single isomer, unassigned) [Example 251a], the results for the concentration for half-maximal inhibition (IC50) against CDK1/Cyclin B1 and against CDK2/Cyclin E1 were 74 nM and 1.1 nM, respectively.
The corresponding values for `CC(C)NC(=O)O[C@H]1CC[C@@H](c2cc(Nc3ccc4c(c3F)CS(=O)(=O)N4)n[nH]2)C1` (single isomer, unassigned) [Example 251b] are 31 nM and 1 nM.
For the molecule `CC(C)NC(=O)O[C@H]1CC[C@@H](c2cc(Nc3ccc4c(c3F)CS(=O)(=O)N4C)n[nH]2)C1` (single isomer, unassigned) [Example 255a, cis-3-(3-((4-fluoro-1-methyl-2,2-dioxido-1,3-dihydrobenzo[c]isothiazol-5-yl)amino)-1H-pyrazol-5-yl)cyclopentyl isopropylcarbamate], the IC50 amounted to 133 nM against CDK1/Cyclin B1 and 2.9 nM on CDK2/Cyclin E1.
The corresponding values for `CC(C)NC(=O)O[C@H]1CC[C@@H](c2cc(Nc3ccc4c(c3F)CS(=O)(=O)N4C)n[nH]2)C1` (single isomer, unassigned) [Example 255b, cis-3-(3-((4-fluoro-1-methyl-2,2-dioxido-1,3-dihydrobenzo[c]isothiazol-5-yl)amino)-1H-pyrazol-5-yl)cyclopentyl isopropylcarbamate] are 149 nM and 5.2 nM.
The corresponding values for `CCCNC(=O)O[C@H]1CC[C@@H](c2cc(Nc3ccc4c(c3F)CS(=O)(=O)N4C)n[nH]2)C1` (single isomer, unassigned) [Example 256a, cis-3-(3-((4-fluoro-1-methyl-2,2-dioxido-1,3-dihydrobenzo[c]isothiazol-5-yl)amino)-1H-pyrazol-5-yl)cyclopentyl propylcarbamate] are 334 nM and 5.3 nM.
Consider `CCCNC(=O)O[C@H]1CC[C@@H](c2cc(Nc3ccc4c(c3F)CS(=O)(=O)N4C)n[nH]2)C1` (single isomer, unassigned) [Example 256b, cis-3-(3-((4-fluoro-1-methyl-2,2-dioxido-1,3-dihydrobenzo[c]isothiazol-5-yl)amino)-1H-pyrazol-5-yl)cyclopentyl propylcarbamate], for which the IC50 on CDK1/Cyclin B1 came out at 130 nM; against CDK2/Cyclin E1, 4 nM.
The corresponding values for `CC(C)NC(=O)O[C@H]1CC[C@@H](c2cc(Nc3ccc4c(c3F)CS(=O)(=O)N4C3COC3)n[nH]2)C1` (single isomer, unassigned) [Example 259a, cis-3-(3-((4-fluoro-1-(oxetan-3-yl)-2,2-dioxido-1,3-dihydrobenzo[c]isothiazol-5-yl)amino)-1H-pyrazol-5-yl)cyclopentyl isopropylcarbamate] are 364 nM and 5.4 nM.
Taken in the same sequence, the figures for `CC(C)NC(=O)O[C@H]1CC[C@@H](c2cc(Nc3ccc4c(c3F)CS(=O)(=O)N4C3COC3)n[nH]2)C1` (single isomer, unassigned) [Example 259b, cis-3-(3-((4-fluoro-1-(oxetan-3-yl)-2,2-dioxido-1,3-dihydrobenzo[c]isothiazol-5-yl)amino)-1H-pyrazol-5-yl)cyclopentyl isopropylcarbamate] were 157 nM and 3 nM.
The corresponding values for `CCCNC(=O)O[C@H]1CC[C@@H](c2cc(Nc3ccc4c(c3F)CS(=O)(=O)N4C3COC3)n[nH]2)C1` (single isomer, unassigned) [Example 260a, cis-3-(3-((4-fluoro-1-(oxetan-3-yl)-2,2-dioxido-1,3-dihydrobenzo[c]isothiazol-5-yl)amino)-1H-pyrazol-5-yl)cyclopentyl propylcarbamate] are 270 nM and 5.9 nM.
Take `CCCNC(=O)O[C@H]1CC[C@@H](c2cc(Nc3ccc4c(c3F)CS(=O)(=O)N4C3COC3)n[nH]2)C1` (single isomer, unassigned) [Example 260b, cis-3-(3-((4-fluoro-1-(oxetan-3-yl)-2,2-dioxido-1,3-dihydrobenzo[c]isothiazol-5-yl)amino)-1H-pyrazol-5-yl)cyclopentyl propylcarbamate]: the results for the half-inhibitory concentration (IC50) against CDK1/Cyclin B1 and against CDK2/Cyclin E1 were 103 nM and 3.4 nM, respectively.
Taken in the same sequence, the figures for `CC[C@H](C)NC(=O)O[C@H]1CC[C@@H](c2cc(Nc3ccc4c(c3F)CS(=O)(=O)N4C3COC3)n[nH]2)C1` (single isomer, unassigned) [Example 261a] were 119 nM and 1.3 nM.
As to `CC[C@H](C)NC(=O)O[C@H]1CC[C@@H](c2cc(Nc3ccc4c(c3F)CS(=O)(=O)N4C3COC3)n[nH]2)C1` (single isomer, unassigned) [Example 261b], the results for the IC50 on CDK1/Cyclin B1 and against CDK2/Cyclin E1 were 23 nM and 0.7 nM, respectively.
Regarding `CC(C)NC(=O)O[C@H]1CC[C@@H](c2cc(Nc3ccc4c(c3F)CS(=O)(=O)N4CC(F)(F)F)n[nH]2)C1` (single isomer, unassigned) [Example 263a, cis-3-(3-((4-fluoro-2,2-dioxido-1-(2,2,2-trifluoroethyl)-1,3-dihydrobenzo[c]isothiazol-5-yl)amino)-1H-pyrazol-5-yl)cyclopentyl isopropylcarbamate], the half-maximal inhibitory concentration (IC50) was found to be 70 nM on CDK1/Cyclin B1 and 2.1 nM on CDK2/Cyclin E1.

The values above are taken from patent US20260297080A1, “BICYCLIC COMPOUNDS AS CDK INHIBITORS” (BeOne Medicines I GmbH, priority 2022, published 2026).
